We go through 13 molecules from patent US12617783B2, “Heterocyclic GLP-1R agonists” (BIOMEA FUSION, INC., priority 2024, dated 2026).

For orientation: EC50 means the concentration that produces a half-maximal response.

Like-named read-outs stand apart in the source and are kept apart here.

In this experiment the target is T1, human GLP-1R (Homo sapiens, UniProt P43220).
T1 construct: host or cells: HEK293
The experiment can be described thus: GLP-1R cAMP assay (Example B1a, HTRF, 30 min at room temperature). It is filed as cell-based. An outline of the steps: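 Competitive HTRF read-out of cAMP after 30 min room-temperature stimulation, BETP absent, of human GLP-1R-HEK293 cells (1,000/well) in HEPES buffer with 500 μM IBMX and 0.1% BSA. Activation normalised to GLP-1(7-37) positive control. EC50 from 4-parameter non-linear regression.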
On the technique in general: Cyclic AMP is a second messenger, typically raised through Gs and lowered through Gi signalling.

The mark [1] stands for this setting: cAMP accumulation in HEK293 expressing human GLP-1R, no BETP, 30 min room temperature (Method B1a, compounds ID 1-609), Table 1, read-out: EC50.

T1 sequence (P43220 24-463): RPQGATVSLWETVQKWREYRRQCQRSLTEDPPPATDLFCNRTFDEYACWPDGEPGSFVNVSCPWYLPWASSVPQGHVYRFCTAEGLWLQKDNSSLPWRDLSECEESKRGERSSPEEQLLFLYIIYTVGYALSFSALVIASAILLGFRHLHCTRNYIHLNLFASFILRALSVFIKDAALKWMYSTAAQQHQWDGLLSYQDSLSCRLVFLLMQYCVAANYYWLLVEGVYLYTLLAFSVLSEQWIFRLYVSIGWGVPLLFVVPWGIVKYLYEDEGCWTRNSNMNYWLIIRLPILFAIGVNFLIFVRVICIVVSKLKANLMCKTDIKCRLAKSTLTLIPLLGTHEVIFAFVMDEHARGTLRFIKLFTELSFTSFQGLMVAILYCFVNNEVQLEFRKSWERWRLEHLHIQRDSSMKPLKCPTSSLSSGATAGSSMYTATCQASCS

With `Cc1cc(-n2nc3c(c2-n2ccn(-c4ccc5c(cnn5C)c4F)c2=O)[C@@H]2CC[C@H](C3)N2C(=O)c2cc3cc([C@H]4CCOC5(CCC5)C4)ccc3n2[C@@]2(c3noc(=O)[nH]3)C[C@@H]2C)cc(C)c1F` [Compound 426, 3-((1S,2S)-1-(2-((4S,7R)-3-(3-(4-fluoro-1-methyl-1H-indazol-5-yl)-2-oxo-2,3-dihydro-1H-imidazol-1-yl)-2-(4-fluoro-3,5-dimethylphenyl)-2,4,5,6,7,8-hexahydro-4,7-epiminocyclohepta [c]pyrazole-9-carbonyl)-5-((S)-5-oxaspiro[3.5]nonan-8-yl)-1H-indol-1-yl)-2-methylcyclopropyl)-1,2,4-oxadiazol-5(4H)-one], the EC50 under setting [1] came to 134 nM. On the same count and under the same terms, the result for `Cc1cc(-n2nc3c(c2-n2ccn(-c4ccc5c(cnn5C)c4F)c2=O)C2CCCC(C3)N2C(=O)c2cc3cc([C@H]4CCOC(C)(C)C4)ccc3n2[C@@]2(c3noc(=O)[nH]3)C[C@@H]2C)cc(C)c1F` (stereo partly drawn) [Compound 427, 3-((1S,2S)-1-(5-((S)-2,2-dimethyltetrahydro-2H-pyran-4-yl)-2-(3-(3-(4-fluoro-1-methyl-1H-indazol-5-yl)-2-oxo-2,3-dihydro-1H-imidazol-1-yl)-2-(4-fluoro-3,5-dimethylphenyl)-4,5,6,7,8,9-hexahydro-2H-4,8-epiminocycloocta [c]pyrazole-10-carbonyl)-1H-indol-1-yl)-2-methylcyclopropyl)-1,2,4-oxadiazol-5 (4H)-one] reads 77.1 nM; that for `CCS(=N)(=O)c1ccc(-n2ccn(-c3c4c(nn3-c3cc(C)c(F)c(C)c3)C[C@H]3CC[C@@H]4N3C(=O)c3cc4cc([C@H]5CCOC(C)(C)C5)ccc4n3[C@@]3(c4noc(=O)[nH]4)C[C@@H]3C)c2=O)c(F)c1` (stereo partly drawn) [Compound 428, 3-((1S,2S)-1-(5-((S)-2,2-dimethyltetrahydro-2H-pyran-4-yl)-2-((4S,7R)-3-(3-(4-(ethylsulfonimidoyl)-2-fluorophenyl)-2-oxo-2,3-dihydro-1H-imidazol-1-yl)-2-(4-fluoro-3,5-dimethylphenyl)-2,4,5,6,7,8-hexahydro-4,7-epiminocyclohepta [c]pyrazole-9-carbonyl)-1H-indol-1-yl)-2-methylcyclopropyl)-1,2,4-oxadiazol-5(4H)-one], 94.8 nM; that for `Cc1cc(-n2nc3c(c2-n2ccn(-c4ccn5c(cc(=O)n5C)c4F)c2=O)[C@@H]2CC[C@H](C3)N2C(=O)c2cc3cc([C@H]4CCOC(C)(C)C4)ccc3n2[C@@]2(c3noc(=O)[nH]3)C[C@@H]2C)cc(C)c1F` [Compound 429, 3-((1S,2S)-1-(5-((S)-2,2-dimethyltetrahydro-2H-pyran-4-yl)-2-((4S,7R)-3-(3-(4-fluoro-1-methyl-2-oxo-1,2-dihydropyrazolo[1,5-a]pyridin-5-yl)-2-oxo-2,3-dihydro-1H-imidazol-1-yl)-2-(4-fluoro-3,5-dimethylphenyl)-2,4,5,6,7,8-hexahydro-4,7-epiminocyclohepta [c]pyrazole-9-carbonyl)-1H-indol-1-yl)-2-methylcyclopropyl)-1,2,4-oxadiazol-5(4H)-one], 12.2 nM. Consider `Cc1cc(-n2nc3c(c2-n2ccn(-c4ccc5c(cnn5C)c4F)c2=O)[C@H]2CCC[C@@H](C3)N2C(=O)c2cc3cc([C@H]4CCOC(C)(C)C4)ccc3n2[C@@]2(c3noc(=O)[nH]3)C[C@@H]2C)cc(C)c1F` [Compound 430, 3-((1S,2S)-1-(5-((S)-2,2-dimethyltetrahydro-2H-pyran-4-yl)-2-((4R,8S)-3-(3-(4-fluoro-1-methyl-1H-indazol-5-yl)-2-oxo-2,3-dihydro-1H-imidazol-1-yl)-2-(4-fluoro-3,5-dimethylphenyl)-4,5,6,7,8,9-hexahydro-2H-4,8-epiminocycloocta [c]pyrazole-10-carbonyl)-1H-indol-1-yl)-2-methylcyclopropyl)-1,2,4-oxadiazol-5 (4H)-one], for which the EC50 under setting [1] was at least 10000 nM. In addition, the potency result (text to Table 1d, bridge atoms configured out of the plane or toward the reader) is reported as “little or no potency”. Regarding `COc1cc2c(F)c(-n3ccn(-c4c5c(nn4-c4cc(C)c(F)c(C)c4)C[C@H]4CC[C@@H]5N4C(=O)c4cc5cc([C@H]6CCOC(C)(C)C6)ccc5n4[C@@]4(c5noc(=O)[nH]5)C[C@@H]4C)c3=O)ccn2n1` [Compound 431, 3-((1S,2S)-1-(5-((S)-2,2-dimethyltetrahydro-2H-pyran-4-yl)-2-((4S,7R)-3-(3-(4-fluoro-2-methoxypyrazolo[1,5-a]pyridin-5-yl)-2-oxo-2,3-dihydro-1H-imidazol-1-yl)-2-(4-fluoro-3,5-dimethylphenyl)-2,4,5,6,7,8-hexahydro-4,7-epiminocyclohepta [c]pyrazole-9-carbonyl)-1H-indol-1-yl)-2-methylcyclopropyl)-1,2,4-oxadiazol-5 (4H)-one], the EC50 under setting [1] worked out at 125 nM. Same read-out and setting: the figure for `Cc1cc(-n2nc3c(c2-n2ccn(-c4ccc5c(cnn5C)c4F)c2=O)CN(Cc2cc4cc([C@H]5CCOC(C)(C)C5)ccc4n2[C@@]2(c4noc(=O)[nH]4)C[C@@H]2C)CCC3)cc(C)c1F` [Compound 432, 3-((1S,2S)-1-(5-((S)-2,2-dimethyltetrahydro-2H-pyran-4-yl)-2-((3-(3-(4-fluoro-1-methyl-1H-indazol-5-yl)-2-oxo-2,3-dihydro-1H-imidazol-1-yl)-2-(4-fluoro-3,5-dimethylphenyl)-2,6,7,8-tetrahydropyrazolo[4,3-c]azepin-5 (4H)-yl)methyl)-1H-indol-1-yl)-2-methylcyclopropyl)-1,2,4-oxadiazol-5(4H)-one] is 284 nM.

As for `Cc1cc(-n2nc3c(c2-n2ccn(-c4ccc5c(cnn5C)c4F)c2=O)[C@@H]2CCC[C@H](C3)N2C(=O)c2cc3cc([C@H]4CCOC(C)(C)C4)ccc3n2[C@@]2(c3noc(=O)[nH]3)C[C@@H]2C)cc(C)c1F` [Compound 433, 3-((1S,2S)-1-(5-((S)-2,2-dimethyltetrahydro-2H-pyran-4-yl)-2-((4S,8R)-3-(3-(4-fluoro-1-methyl-1H-indazol-5-yl)-2-oxo-2,3-dihydro-1H-imidazol-1-yl)-2-(4-fluoro-3,5-dimethylphenyl)-4,5,6,7,8,9-hexahydro-2H-4,8-epiminocycloocta [c]pyrazole-10-carbonyl)-1H-indol-1-yl)-2-methylcyclopropyl)-1,2,4-oxadiazol-5 (4H)-one], under “Table 1d, potency ratio of stereoisomer pair (less potent / more potent isomer)”, the “EC50 Ratio” value is over 333. Also, the EC50 reads like this: (Table 1d, stereoisomer pairs, read-out: EC50) 30 nM; under setting [1], 30 nM; (text to Table 1d, bridge atoms configured into the plane or away from the reader, read-out: potency (EC50)) under 1000 nM. In the case of `CC[C@H]1C[C@]1(c1noc(=O)[nH]1)n1c(C(=O)N2[C@@H]3CC[C@H]2c2c(nn(-c4cc(C)c(F)c(C)c4)c2-n2ccn(-c4ccc5c(cnn5C)c4F)c2=O)C3)cc2cc([C@H]3CCOC(C)(C)C3)ccc21` [Compound 434, 3-[(1S,2S)-1-[5-[(4S)-2,2-dimethyltetrahydropyran-4-yl]-2-[(1S,8R)-4-(4-fluoro-3,5-dimethyl-phenyl)-3-[3-(4-fluoro-1-methyl-indazol-5-yl)-2-oxo-imidazol-1-yl]-4,5,11-triazatricyclo[6.2.1.02,6]undeca-2,5-diene-11-carbonyl]indol-1-yl]-2-ethyl-cyclopropyl]-4H-1,2,4-oxadiazol-5-one], under setting [1], the EC50 stood at 175 nM.

`CC[C@@H]1C[C@@]1(c1noc(=O)[nH]1)n1c(C(=O)N2[C@@H]3CC[C@H]2c2c(nn(-c4cc(C)c(F)c(C)c4)c2-n2ccn(-c4ccc5c(cnn5C)c4F)c2=O)C3)cc2cc([C@H]3CCOC(C)(C)C3)ccc21` [Compound 435, 3-[(1R,2R)-1-[5-[(4S)-2,2-dimethyltetrahydropyran-4-yl]-2-[(1S,8R)-4-(4-fluoro-3,5-dimethyl-phenyl)-3-[3-(4-fluoro-1-methyl-indazol-5-yl)-2-oxo-imidazol-1-yl]-4,5,11-triazatricyclo[6.2.1.02,6]undeca-2,5-diene-11-carbonyl]indol-1-yl]-2-ethyl-cyclopropyl]-4H-1,2,4-oxadiazol-5-one]: under setting [1], the 50% effective concentration (EC50) was 3870 nM. On the same count and under the same terms, the result for `Cc1cc(-n2nc3c(c2-n2ccn(-c4ccc5[nH]ncc5c4F)c2=O)[C@@H]2CC[C@H](C3)N2C(=O)c2cc3cc([C@H]4CCOC5(CC5)C4)ccc3n2[C@@]2(c3noc(=O)[nH]3)C[C@@H]2C)cc(C)c1F` [Compound 436, 3-((1S,2S)-1-(2-((4S,7R)-3-(3-(4-fluoro-1H-indazol-5-yl)-2-oxo-2,3-dihydro-1H-imidazol-1-yl)-2-(4-fluoro-3,5-dimethylphenyl)-2,4,5,6,7,8-hexahydro-4,7-epiminocyclohepta [c]pyrazole-9-carbonyl)-5-((S)-4-oxaspiro[2.5]octan-7-yl)-1H-indol-1-yl)-2-methylcyclopropyl)-1,2,4-oxadiazol-5 (4H)-one] reads 70 nM; that for `Cc1cc(-n2nc3c(c2-n2ccn(-c4ccc5cnncc5c4F)c2=O)[C@@H]2CC[C@H](C3)N2C(=O)c2cc3cc([C@H]4CCOC5(CC5)C4)ccc3n2[C@@]2(c3noc(=O)[nH]3)C[C@@H]2C)cc(C)c1F` [Compound 437, 3-((1S,2S)-1-(2-((4S,7R)-2-(4-fluoro-3,5-dimethylphenyl)-3-(3-(5-fluorophthalazin-6-yl)-2-oxo-2,3-dihydro-1H-imidazol-1-yl)-2,4,5,6,7,8-hexahydro-4,7-epiminocyclohepta [c]pyrazole-9-carbonyl)-5-((S)-4-oxaspiro[2.5]octan-7-yl)-1H-indol-1-yl)-2-methylcyclopropyl)-1,2,4-oxadiazol-5 (4H)-one], 55 nM; that for `Cc1cc(-n2nc3c(c2-n2ccn(-c4ccc5c(cnn5C)c4F)c2=O)[C@@H]2CC[C@H](C3)N2S(=O)(=O)c2cc3cc(C4CCOC(C)(C)C4)ccc3n2[C@@]2(c3noc(=O)[nH]3)C[C@@H]2C)cc(C)c1F` (stereo partly drawn) [Compound 503, 3-((1S,2S)-1-(5-(2,2-dimethyltetrahydro-2H-pyran-4-yl)-2-(((4S,7R)-3-(3-(4-fluoro-1-methyl-1H-indazol-5-yl)-2-oxo-2,3-dihydro-1H-imidazol-1-yl)-2-(4-fluoro-3,5-dimethylphenyl)-2,4,5,6,7,8-hexahydro-4,7-epiminocyclohepta [c]pyrazol-9-yl)sulfonyl)-1H-indol-1-yl)-2-methylcyclopropyl)-1,2,4-oxadiazol-5 (4H)-one], 97.8 nM.
